US12012387B2, “Triazine compound and use thereof” (priority 2018, dated 2024)

What was measured:
[1] = system: Gram-negative bacteria and Gram-positive bacteria; experiment: Antibacterial activity, MIC over the four strains (GM); type: cell-based; details: mean of the MIC values of the four strains
Method: To confirm the antibacterial activity, a minimal inhibitory concentration (MIC) value, which is a minimum concentration at which fungus bodies are not divided, was measured. Specifically, the strains disclosed in the following table 1 were purchased, incubated in each medium up to a mid-log phase, diluted to a fungus body concentration of 2×10^5 cells/100 μl, and inoculated into a micro titrate plate (Nunc, USA). […] A control group was treated with melittine by the same method as above, so as to determine an MIC value for each strain.

[2] = system: trypsin; experiment: Stability against protease (radial diffusion assay after trypsin treatment); type: in vitro ADME; details: 24 hours after trypsin culture; FIG. 2
Method: To confirm the stability against the protease, trypsin degradation was identified by using a radial diffusion assay method after treatment with each of the triazine compounds of the following example. Specifically, the cultured strains (Escherichia coli) were incubated in 10 mL of LB medium at 37° C. for 18 hours, after which 10 μl of the culture fluid was inoculated into 10 mL of fresh BL medium and then further incubated for three hours, so as to obtain bacteria in a mid-logarithmic phase. For the radial diffusion assay method, a bacterial suspension (2×10^6 CFU/mL in LB) was mixed with 0.7% agarose and rapidly dispersed, after which the resulting mixed solution was poured into a 10 cm-long Petri dish. Each 5 μl of the triazine compound solution (10 mg/mL) of the following example was added to 25 μl of trypsin solution (0.2 μg/mL in PBS), and incubated at 37° C. for six hours. A reaction was terminated by freezing with liquid nitrogen, after which each 10 μl was taken, seeded on circular paper having a diameter of 6 mm placed on the Petri dish containing the agarose, and incubated overnight at 37° C. To quantify the inhibitory activity, the clearance zones of bacteria around the circular paper were measured to confirm the antibacterial activity. As a control group, melittine was used.

## CC[C@H](C)[C@H](NC(=O)CN)C(=O)NCC(=O)N[C@@H](C)C(=O)N[C@H](C(=O)N[C@@H](CC(C)C)C(=O)N[C@@H](CCCCN)C(=O)N[C@H](C(=O)N[C@@H](CC(C)C)C(=O)N[C@H](C(=O)N[C@H](C(=O)NCC(=O)N[C@@H](CC(C)C)C(=O)N1CCC[C@H]1C(=O)N[C@@H](C)C(=O)N[C@@H](CC(C)C)C(=O)N[C@H](C(=O)N[C@@H](CO)C(=O)N[C@@H](Cc1c[nH]c2ccccc12)C(=O)N[C@H](C(=O)N[C@@H](CCCCN)C(=O)N[C@@H](CCCNC(=N)N)C(=O)N[C@@H](CCCCN)C(=O)N[C@@H](CCCNC(=N)N)C(=O)N[C@@H](CCC(N)=O)C(=O)N[C@@H](CCC(N)=O)C(N)=O)[C@@H](C)CC)[C@@H](C)CC)[C@@H](C)O)[C@@H](C)O)C(C)C)C(C)C [Melittin]
[1]
  GM: 3.8 µM
[2]
  antibacterial activity against E. coli after trypsin culture: remarkable decrease in the antibacterial activity
